Results on ten compounds are retold here after PubChem BioAssay (NCI).

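Grown in 96-well plates, cells were treated for 48 hours with each compound at five concentrations. Insufficient inhibition: endpoint recorded as highest concentration tested. GI50: concentration for 50% inhibition of growth. Definition used: TGI = concentration required for complete inhibition of growth.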

Among the test systems are CCRF-CEM leukemia; NCI-H522 lung; RPMI-8226 leukemia; RXF 393 renal; SK-MEL-2 melanoma; SK-MEL-28 melanoma; SN12C renal; SW-620 colon; TK-10 renal; U251 CNS.
Assay in all cases: NCI tumour cell line growth inhibition, 48 h

For `N=C1C(c2nc3ccccc3s2)=C(O)CN1c1ccc(Cl)cc1Cl`, the GI50 was 19.2 µM in the test with CCRF-CEM leukemia; 11.2 µM in the test with NCI-H522 lung; 18.9 µM in the test with RPMI-8226 leukemia; 10.8 µM in the test on RXF 393 renal; 27.6 µM in the test on SK-MEL-2 melanoma; 21 µM in the test with SK-MEL-28 melanoma. The GI50 in the test with SN12C renal was 13.5 µM; in the test with SW-620 colon, 36.7 µM; in the test with TK-10 renal, 14.4 µM; with U251 CNS, 10.1 µM. Further, the TGI is more than 100 µM in the test on CCRF-CEM leukemia; 35.2 µM with NCI-H522 lung; 62.1 µM in the test with RPMI-8226 leukemia; 36.1 µM in the test with RXF 393 renal; 96.6 µM in the test with SK-MEL-2 melanoma; more than 100 µM with SK-MEL-28 melanoma. Further, the TGI in the test with SN12C renal was 32.4 µM; with SW-620 colon, more than 100 µM; in the test on TK-10 renal, 42.8 µM; in the test with U251 CNS, 29.9 µM.

On to `N#Cc1nn(C2OC(COC(=O)c3ccccc3)C(OC(=O)c3ccccc3)C2OC(=O)c2ccccc2)c2nc[nH]c(=O)c12` (stereo not given), for which the TGI in the test on CCRF-CEM leukemia was 84.7 µM; with NCI-H522 lung, more than 100 µM; in the test with RPMI-8226 leukemia, more than 100 µM; in the test on RXF 393 renal, more than 100 µM; in the test on SK-MEL-2 melanoma, more than 100 µM; in the test on SK-MEL-28 melanoma, more than 100 µM. For the same compound, the TGI in the test with SN12C renal, with SW-620 colon, in the test with TK-10 renal and in the test with U251 CNS was more than 100 µM in each case.

Take `O=C1/C(=C/c2ccccc2)CN(CCC(=O)N2C/C(=C\c3ccccc3)C(=O)/C(=C/c3ccccc3)C2)C/C1=C\c1ccccc1`: the GI50 is 0.687 µM with CCRF-CEM leukemia; 14.6 µM in the test with NCI-H522 lung; 0.046 µM in the test on RPMI-8226 leukemia; 6.65 µM in the test with RXF 393 renal; 17.5 µM in the test with SK-MEL-2 melanoma; 23.4 µM in the test with SK-MEL-28 melanoma. Besides, the GI50 in the test on SN12C renal was 17.3 µM; in the test with SW-620 colon, 0.495 µM; in the test with TK-10 renal it was 18.3 µM; in the test on U251 CNS it was 1.29 µM. Further, the TGI is more than 100 µM in the test with CCRF-CEM leukemia; 62.7 µM in the test on NCI-H522 lung; 0.5 µM in the test with RPMI-8226 leukemia; 19.9 µM in the test with RXF 393 renal; 38.1 µM in the test on SK-MEL-2 melanoma; 74.5 µM in the test with SK-MEL-28 melanoma. In addition, the TGI with SN12C renal is more than 95.9 µM; in the test on SW-620 colon it was 49.8 µM; in the test on TK-10 renal, 43.9 µM; with U251 CNS, 11.3 µM.

Take `O=C1CCC2=C3C4CCCCC4C(=O)C4CCCC(OC2C1)C34` (stereo not given): the GI50 was 1.34 µM in the test on CCRF-CEM leukemia; 0.434 µM in the test with NCI-H522 lung; 0.398 µM in the test on RPMI-8226 leukemia; 0.605 µM with RXF 393 renal; 1.38 µM in the test on SK-MEL-2 melanoma; 4.84 µM in the test on SK-MEL-28 melanoma. Further, the GI50 in the test with SN12C renal was 0.849 µM; in the test on SW-620 colon, 0.394 µM; with TK-10 renal it was 6.36 µM; in the test with U251 CNS it was 0.428 µM. Also, the TGI in the test with CCRF-CEM leukemia is 8.08 µM; in the test with NCI-H522 lung, 1.27 µM; with RPMI-8226 leukemia, 2.65 µM; with RXF 393 renal it was 1.79 µM; in the test on SK-MEL-2 melanoma, 4.14 µM; with SK-MEL-28 melanoma it was more than 31.4 µM. Moreover, the TGI is more than 24.7 µM in the test with SN12C renal, 3.13 µM in the test on SW-620 colon, more than 29.5 µM with TK-10 renal and more than 20.2 µM in the test with U251 CNS.

Take `ClC1(c2ccccc2)c2ccc(Br)cc2-c2cc(Br)ccc21`: the TGI was more than 100 µM with CCRF-CEM leukemia; 30.6 µM in the test with NCI-H522 lung; 64.8 µM in the test with RPMI-8226 leukemia; 36.6 µM in the test on RXF 393 renal; 32.5 µM with SK-MEL-2 melanoma; 35.8 µM in the test with SK-MEL-28 melanoma. The TGI in the test with SN12C renal was found to be 34.9 µM; in the test with SW-620 colon, 36.3 µM; in the test with TK-10 renal it was 34.8 µM; in the test with U251 CNS, 31.6 µM.

Consider `CCOC(=O)/C(C#N)=C\C=C1/C=CNC2=NCCN21`, for which the TGI in the test with CCRF-CEM leukemia, in the test on NCI-H522 lung, in the test on RPMI-8226 leukemia, in the test with RXF 393 renal, in the test with SK-MEL-2 melanoma and in the test on SK-MEL-28 melanoma was more than 100 µM each time. Moreover, the TGI in the test with SN12C renal, in the test with SW-620 colon, in the test on TK-10 renal and in the test with U251 CNS was more than 100 µM in each case.

`COc1cc([C@@H]2c3cc4c(cc3[C@@H](NCc3ccc(C#N)cc3)C3COC(=O)[C@@H]32)OCO4)cc(OC)c1O` (stereo not given in full): the TGI was determined as 7.01 µM with CCRF-CEM leukemia; 2.83 µM with NCI-H522 lung; 5.07 µM in the test on RPMI-8226 leukemia; 21.5 µM in the test on RXF 393 renal; 6.54 µM in the test with SK-MEL-2 melanoma; 15.2 µM in the test on SK-MEL-28 melanoma. In addition, the TGI in the test on SN12C renal was 3.02 µM; with SW-620 colon, 3.44 µM; in the test with TK-10 renal it was 3.76 µM; with U251 CNS, 1.55 µM.

For `CCN(CC)C(=O)CNC(=O)OC(C)(C)C`, the TGI in the test with CCRF-CEM leukemia, with NCI-H522 lung, in the test with RPMI-8226 leukemia, in the test on RXF 393 renal, in the test with SK-MEL-2 melanoma and with SK-MEL-28 melanoma was more than 100 µM each time. For the same compound, the TGI in the test on SN12C renal, in the test with SW-620 colon, with TK-10 renal and in the test on U251 CNS was more than 100 µM in each case.

For the compound `CCCCCCCC(=O)OCC1OC(n2cc(F)c(=O)[nH]c2=O)C(NC(=O)OCc2ccccc2)C(OC(=O)CCCCCCC)C1O` (stereo not given), the TGI was 66.1 µM with CCRF-CEM leukemia; 72 µM in the test on NCI-H522 lung; 51.2 µM in the test with RPMI-8226 leukemia; 64.2 µM in the test with RXF 393 renal; 57.1 µM with SK-MEL-2 melanoma; more than 100 µM in the test on SK-MEL-28 melanoma. The TGI in the test on SN12C renal was 27.4 µM; in the test on SW-620 colon it was more than 100 µM; in the test on TK-10 renal it was more than 100 µM; in the test on U251 CNS it was 60.9 µM.

`NCC1OC(n2cnc3c(=O)[nH]c(N)nc32)C(O)C1O` (stereo not given): the TGI with CCRF-CEM leukemia is more than 100 µM; in the test with NCI-H522 lung, more than 100 µM; with RPMI-8226 leukemia it was more than 63.8 µM; in the test on RXF 393 renal it was more than 100 µM; in the test on SK-MEL-2 melanoma, more than 100 µM; with SK-MEL-28 melanoma, more than 100 µM. In addition, the TGI in the test with SN12C renal, in the test on SW-620 colon, with TK-10 renal and in the test on U251 CNS was more than 100 µM in each case.
